In ChEMBL document CHEMBL4806969, “Modulators of mas-related g-protein receptor x4 and related products and methods” (2020):
pIC50: −log10 of the molar value. Active and inactive are the calls of the source. No cut-off for these calls is given here.

Experiments:
[1] = target: T1, Mas-related G-protein coupled receptor member X4 (Homo sapiens, UniProt Q96LA9); assay: Antagonist activity at human MRGPRX4 expressed in HEK cells incubated in dark for 1 hr at 37 degree C and then incubated for 30 mins at room temperature in presence of […] bilirubin by HTRF assay; format: functional, cell-based
T1 sequence (Q96LA9 whole entry): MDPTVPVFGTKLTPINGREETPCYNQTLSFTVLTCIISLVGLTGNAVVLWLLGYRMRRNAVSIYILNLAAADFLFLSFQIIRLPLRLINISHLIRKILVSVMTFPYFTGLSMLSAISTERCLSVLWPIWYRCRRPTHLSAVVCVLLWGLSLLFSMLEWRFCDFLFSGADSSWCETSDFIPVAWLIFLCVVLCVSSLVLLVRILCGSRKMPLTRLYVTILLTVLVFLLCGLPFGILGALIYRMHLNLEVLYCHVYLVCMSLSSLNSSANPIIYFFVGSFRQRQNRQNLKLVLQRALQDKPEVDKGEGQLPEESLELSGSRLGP

[2] = target: T1, Mas-related G-protein coupled receptor member X4; assay: Antagonist activity at human MRGPRX4 expressed in HEK cells incubated in dark for 1 hr at 37 degree C and then incubated for 30 mins at room temperature in presence of 50 uM of obeticholic acid by HTRF assay; format: functional, cell-based
[3] = Half life in C57BL/6 mouse at 50 mg/kg, po measured upto 24 hrs by LC-MS/MS analysis; format: ADME, organism-based; conditions: in vivo
[4] = target: T1, Mas-related G-protein coupled receptor member X4; assay: Antagonist activity at human MRGPRX4 expressed in HEK cells incubated in dark for 1 hr at 37 degree C and then incubated for 30 mins at room temperature in presence of 20 uM of deoxycholic acid by HTRF assay; format: functional, cell-based
[5] = AUC in C57BL/6 mouse at 50 mg/kg, po measured upto 24 hrs by LC-MS/MS analysis; format: ADME, organism-based; set-up: route oral, dose 50 mg/kg, time <=24; conditions: in vivo
[6] = Stability of compound assessed as parent compound remaining after stored for 24 hrs in blue light condition at room temperature by LC-MS/MS analysis; format: physicochemical
[7] = target: T1, Mas-related G-protein coupled receptor member X4; assay: Agonist activity at human MRGPRX4 expressed in HEK cells using preincubated compound in dark at room temperature for 24 hrs by HTRF assay; format: functional, cell-based
[8] = Stability of compound assessed as parent compound remaining after stored for 24 hrs in normal lab light condition at room temperature by LC-MS/MS analysis; format: physicochemical
[9] = target: T1, Mas-related G-protein coupled receptor member X4; assay: Agonist activity at human MRGPRX4 expressed in HEK cells using preincubated compound in blue light at room temperature for 24 hrs by HTRF assay; format: functional, cell-based
[10] = target: T1, Mas-related G-protein coupled receptor member X4; assay: Agonist activity at human MRGPRX4 expressed in HEK cells using preincubated compound in dark freezer condition for 24 hrs by HTRF assay; format: functional, cell-based; conditions: filed as agonist
[11] = Stability of compound assessed as parent compound remaining after stored for 24 hrs in dark at room temperature by LC-MS/MS analysis; format: physicochemical
[12] = Stability of compound assessed as parent compound remaining after stored for 24 hrs in dark freezer condition by LC-MS/MS analysis; format: physicochemical; conditions: read-out: Stabilty
[13] = target: T1, Mas-related G-protein coupled receptor member X4; assay: Agonist activity at human MRGPRX4 expressed in HEK cells using preincubated compound in light at room temperature for 24 hrs by HTRF assay; format: functional, cell-based
[14] = target: T1, Mas-related G-protein coupled receptor member X4; assay: Antagonist activity at human MRGPRX4 expressed in HEK cells incubated in dark for 1 hr at 37 degree C and then incubated for 30 mins at room temperature in presence of 50 uM of urobilin by HTRF assay; format: functional, cell-based
[15] = target: T1, Mas-related G-protein coupled receptor member X4; assay: Antagonist activity at human MRGPRX4 expressed in HEK cells incubated in dark for 1 hr at 37 degree C and then incubated for 30 mins at room temperature in presence of 10 uM of bilirubin by HTRF assay; format: functional, cell-based
[16] = target: T1, Mas-related G-protein coupled receptor member X4; assay: Antagonist activity at human MRGPRX4 expressed in HEK cells incubated in dark for 1 hr at 37 degree C and then incubated for 30 mins at room temperature in presence of 100 uM of conjugated bilirubin by HTRF assay; format: functional, cell-based
[17] = Cmax in C57BL/6 mouse at 50 mg/kg, po measured upto 24 hrs by LC-MS/MS analysis; format: ADME, organism-based; set-up: route oral, dose 50 mg/kg, time <=24; conditions: in vivo

Row | SMILES | pIC50 [1] | pIC50 [2] | half-life [3] | pIC50 [4] | AUC at 24 h [5] | further results
1 | O=C(O)c1cccc(COc2ccc(Cl)cc2C(F)(F)F)n1 | > 7.00 | 8.30 | – | – | – | –
2 | C=CC1=C(C)/C(=C/c2[nH]c(Cc3[nH]c(/C=C4\NC(=O)C(C)=C4C=C)c(C)c3CCC(=O)O)c(CCC(=O)O)c2C)NC1=O [BILIRUBIN] | – | – | – | – | – | Stabilty [6]: Unstable; Activity [7]: inactive; Stabilty [8]: Unstable; Activity [9]: inactive; Activity [10]: Active; Stabilty [11]: Unstable; remaining at 24 h [12]: 44%; Activity [13]: inactive
3 | N#Cc1cc(COc2ccc(Cl)cc2Cl)cc(C(=O)O)c1 | > 7.00 | 8.22 | – | – | – | –
4 | O=C(O)c1cccc(COc2ccc(Cl)cc2Cl)c1 | > 7.00 | – | 4.2 h | 6.89 | 376 µM·h | –
5 | Clc1ccc(OCc2cccc(-c3nnn[nH]3)c2)c(Cl)c1Cl | > 7.00 | – | – | – | – | pIC50 [14]: 8.22
6 | O=C(O)c1cccc(COc2ccc(C(F)(F)F)cc2Cl)c1 | > 7.00 | – | 4.6 h | 7.34 | 615 µM·h | –

The next lines start with results.

Row | pIC50 [1] | pIC50 [2] | half-life [3] | pIC50 [4] | AUC at 24 h [5] | SMILES | further results
7 | > 7.00 | – | 4 h | 7.62 | 219 µM·h | O=C(O)c1cccc(COc2ccc(Cl)c(Cl)c2Cl)c1 | –
8 | > 7.00 | – | 5.4 h | 7.80 | 4700 µM·h | CCc1cc(COc2ccc(C(F)(F)F)cc2Cl)nc(C(=O)O)c1 | –
9 | > 7.00 | 7.66 | 4.8 h | 7.12 | 1200 µM·h | Cc1cc(C(F)(F)F)ccc1OCc1cccc(C(=O)O)c1F | pIC50 [15]: 7.77; pIC50 [16]: 7.92; Cmax [17]: 230 µM
